Data on two compounds can be found in paper PMC10439028, “SGLT5 is the renal transporter for 1,5-anhydroglucitol, a major player in two rare forms of neutropenia” (Cellular and Molecular Life Sciences: CMLS, 2023).

Entries after “also recorded” stand apart in the source; their conditions may differ.

For the experiment, the target named is T1, human SGLT4 (Homo sapiens, UniProt Q2M3M2).
T1 construct: expressed in transfected cells
T1 sequence (Q2M3M2 1-681): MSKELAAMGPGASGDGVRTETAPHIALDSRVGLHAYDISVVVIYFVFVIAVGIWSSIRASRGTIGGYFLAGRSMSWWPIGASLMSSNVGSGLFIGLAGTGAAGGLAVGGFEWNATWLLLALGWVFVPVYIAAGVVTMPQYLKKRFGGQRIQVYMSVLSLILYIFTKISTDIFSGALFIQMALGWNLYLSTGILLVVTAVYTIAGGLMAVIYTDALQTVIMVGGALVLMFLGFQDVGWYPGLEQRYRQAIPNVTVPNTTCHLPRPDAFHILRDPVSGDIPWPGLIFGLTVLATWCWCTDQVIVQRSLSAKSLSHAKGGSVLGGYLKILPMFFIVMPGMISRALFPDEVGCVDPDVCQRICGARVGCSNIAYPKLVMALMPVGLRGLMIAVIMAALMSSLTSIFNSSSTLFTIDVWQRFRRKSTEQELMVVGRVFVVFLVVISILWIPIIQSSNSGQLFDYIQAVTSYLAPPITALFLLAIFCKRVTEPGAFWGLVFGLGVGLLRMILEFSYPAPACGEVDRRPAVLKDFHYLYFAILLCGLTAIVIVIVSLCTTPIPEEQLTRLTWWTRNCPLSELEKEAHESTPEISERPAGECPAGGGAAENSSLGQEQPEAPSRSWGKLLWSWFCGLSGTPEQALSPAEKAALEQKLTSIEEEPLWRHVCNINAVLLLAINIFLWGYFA
The experiment is described as follows: Radioactive uptake assay (saturation kinetics) in HEK293T cells stably overexpressing human SGLT4. In kind it is cell-based. An excerpt: This assay was used to study (1) the transport of 1,5-AG or mannose by the HEK293T model cell lines that stably overexpressed the various transporters or by the transiently transfected HEK293T cells using JetPEI® as a transfection agent prepared as described above and (2) the substrate specificity of each transporter.
For a typical transporter experiment we proceeded as follows. […] To minimize cell loss during the various washing steps in the radioactive uptake experiments, the wells where the cells were seeded were previously coated with poly- D-lysine, which improved their adhesion to the plastic surface of the wells. For this, each well of the 24-well plates was treated with 200 µl of a 0.01% poly-L-lysine solution for 10 min, washed 3 times with 1 ml of sterilized water and left to dry for 2 h. Only then could the 24-well plates be seeded with the appropriate cell lines and cultured overnight at 37 °C in 5% CO2.
On day two, the radioactive uptake assay could be performed. The cell culture media was removed by aspiration and cells were incubated for 20 min at 37 °C and 5% CO2 with a basal medium (10 mM HEPES, pH 7.4, 1 mM CaCl2, 1 mM MgCl2, 2 mM KCl) containing 140 mM choline chloride to deplete intracellular […] ions. This was subsequently replaced with the uptake medium (basal medium + 140 mM NaCl, 25 μM cytochalasin B, 1 mg/ml BSA) containing either radioactive U-[^14C]-mannose (15,000 cpm/well) or 2-[^3H]-1,5-AG (30,000 cpm/well) and respectively, non-radioactive mannose or 1,5-AG, at the required concentration in the experiment. […]
Once the uptake medium was added to the cells, the plates were incubated at 37 °C in 5% CO2 during the required time. […] In each experiment, the transport activities were calculated after subtracting a “blank” value, corresponding to the radioactivity in the appropriate control cells (HEK293T cells that were stably or transiently transfected with one of the parent plasmids pEF6/MycHisA, pEF6HisB, pUB82 or pUB83 with no inserted cDNA) that were analyzed in parallel.

For the compound `OC[C@H]1OC[C@H](O)[C@@H](O)[C@@H]1O` [1,5-AG, 1,5-anhydroglucitol], the “transport of 1,5-AG by human SGLT4” value (concentrations in the physiological range) was “does not transport; also recorded: undetectable”.

Consider `OC[C@H]1OC(O)[C@@H](O)[C@@H](O)[C@@H]1O` (stereo partly drawn) [Mannose, mannose], for which the “SGLT4 better than SGLT5 to transport mannose” value (assuming similar expression of the transporters in the cell lines) is listed as “approximately tenfold better”. The “hSGLT4 Vmax” value (transport of the labelled substrate, Fig. 2B) turned out to be 16.6 ± 0.5 pmol/min/10^5 cells.
